Assay results from article PMC7939384, “In crystallo screening for proline analog inhibitors of the proline cycle enzyme PYCR1” (The Journal of Biological Chemistry, 2021).
Values joined by “and” are separate entries in the source; they are usually repeats but may differ in a detail not shown here. Equal values may be shown once.

Key:
[1] = system: MCF10A hRAS^V12 spheroids; experiment: Spheroid growth based on protein content; format: cell-based; settings: 5 mM, 5 days
[2] = target: T1, human PYCR1 (Homo sapiens, UniProt P32322); experiment: In crystallo screening: electron density as readout for binding (crystal soaking); design: includes residues 1–300 of the full-length 319-residue enzyme; inferred from the Ni-NTA purification; made in house; host or cells: Escherichia coli BL21 (DE3); settings: apo crystals soaked with 25–500 mM of the proline analog
T1 sequence (P32322 1-300): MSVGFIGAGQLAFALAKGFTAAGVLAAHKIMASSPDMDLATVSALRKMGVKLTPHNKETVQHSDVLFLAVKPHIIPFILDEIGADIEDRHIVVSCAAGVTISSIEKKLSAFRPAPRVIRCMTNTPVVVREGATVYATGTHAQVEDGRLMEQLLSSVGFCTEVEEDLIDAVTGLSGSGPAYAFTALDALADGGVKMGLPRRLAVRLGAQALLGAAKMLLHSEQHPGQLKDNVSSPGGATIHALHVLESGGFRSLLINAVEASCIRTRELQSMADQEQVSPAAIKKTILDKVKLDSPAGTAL
Description: (§1) Over two dozen proline analogs (Fig. 2) were screened using electron density from X-ray crystallography as the readout for binding to human PYCR1. […] Because the compounds bind in the P5C/proline site, the mechanism of inhibition was assumed to be competitive with P5C. Therefore, steady-state kinetic measurements were performed with L-P5C as the variable substrate (0-1000 μM) and NADH fixed (175 μM) (Fig. 3). For each compound, the data were fit globally to a competitive inhibition model (Equation 1) to obtain an inhibition constant, Ki.
06594), D,L-thiazolidine-2-carboxylate (Sigma-Aldrich no. 467995), L-thiazolidine-4-carboxylate (Sigma-Aldrich no. T27502), 1,3-thiazolidine-2,4-dicarboxylate (Sigma-Aldrich no. CDS000186), dimethyl 1,3-thiazolidine-2,4-dicarboxylate (Sigma-Aldrich no. […] 287067), L-4-hydroxyproline methyl ester (hydrochloride) (Sigma-Aldrich no. 30681), cis-4-hydroxy-D-proline methyl ester (hydrochloride) (Sigma-Aldrich no. […] 441562), L-(+)-mandelic acid (Sigma-Aldrich no. 63460), sodium-L-lactate (Sigma-Aldrich no. 71718), D-cycloserine (Sigma-Aldrich no. C6880). The proline analogs were added to apo crystals during cryoprotection by soaking the crystals in the reservoir solution supplemented with cryoprotectant (PEG 200 for the PEG 3350 form; glycerol for the NaCl form) and then in the same cryobuffer supplemented with 25–500 mM of the proline analog. Following equilibration, the crystals were harvested and rapidly plunged into liquid nitrogen.
The complex of PYCR1 with THFA was obtained by soaking a C2 crystal (NaCl form) for 15 min in a cryo-buffer consisting of the reservoir solution (3 M NaCl and 0.1 M HEPES at pH 7.5–8.0) supplemented with 30% glycerol and 50 mM THFA, followed by flash-cooling in liquid nitrogen. Crystals of the NFLP complex were prepared by soaking P2_12_12 crystals in the reservoir solution (250 mM Li2SO4, 19% (w/v) PEG 3350, 0.1 M HEPES, pH 7.5) supplemented with 20% (v/v) PEG 200 and 100 mM NFLP. The complexes with L-T2C and L-T4C were prepared similarly, except the Li2SO4 concentration was reduced to 25 mM and 50 mM of either L-T4C or D,L-T2C was included.

[3] = target: T1, human PYCR1; experiment: biochemical; settings: for Ki: competitive with P5C, NADH fixed 175 μM
Description: as §1
B, THFA. C, CPC. D, T4C. E, T2C. F, NFLP. The data were measured in 50 mM Tris (pH 7.5) with 1 mM EDTA disodium salt while holding NADH fixed at 175 μM and varying D,L-P5C (0–2000 μM). The concentration of the substrate L-P5C was considered to be half the total D,L-P5C concentration added to the assays. Curves represent global fits of the data to a competitive inhibition model showing initial velocity in units of µM [NAD^+] s^−1 as a function of L-P5C concentration (µM).
A C-terminal truncation variant of human PYCR1, which includes residues 1–300 of the full-length 319-residue enzyme, was used for kinetics and X-ray crystallography ([18]). PYCR1 was overexpressed in Escherichia coli BL21 (DE3) competent cells and purified using methods similar to those previously reported ([18]). Harvested cells were lysed via sonication in a mixture containing DNase I, lysozyme, and 0.2 mM phenylmethylsulfonyl fluoride protease inhibitor, and then the insoluble material was removed via centrifugation at 16,000 rpm for 1 h at 4°C. The resulting lysate was purified by gravity-flow chromatography on a column containing Ni^2+–nitrilotriacetic acid resin (Qiagen) pre-equilibrated with binding buffer consisting of 50 mM HEPES, 300 mM NaCl, 10 mM imidazole, and 5% (w/v) glycerol at pH 7.8 (buffer A). The column was washed with buffer A supplemented with 30 mM imidazole, and then the bound protein was eluted with buffer A supplemented with 300 mM imidazole. Elution fractions containing PYCR1 were identified by SDS-PAGE and prepared for further purification by size-exclusion chromatography by dialyzing into 300 mM NaCl, 2% (w/v) glycerol, and 50 mM HEPES at pH 7.5. Size-exclusion chromatography was performed on a HiLoad 16/600 Superdex 200 column equilibrated with 50 mM HEPES, pH 7.8, 300 mM NaCl, and 5% (w/v) glycerol. Purified PYCR1 was concentrated to 8 mg/ml and stored at 4°C for subsequent crystallization trials.
Kinetic measurements were performed in a BioTek Epoch 2 microplate spectrophotometer using Corning 96-well UV-transparent microplates. Activity assays were performed by monitoring the consumption of NADH at 340 nm (ε340 = 6220 M^−1 cm^−1) using P5C as the substrate. D,L-P5C was synthesized as described previously ([45]), quantified using o-aminobenzaldehyde (o-AB), and stored in 1 M HCl at 4°C. Neutralization of D,L-P5C to pH 7.5 was performed immediately prior to assays using 1 M Tris (pH 7.5) and 6 M NaOH. The concentration of the substrate L-P5C was assumed to be half the total D,L-P5C concentration added to the assays.
The following microplate protocol was employed. Substrate mixtures containing P5C, NADH, EDTA, and Tris buffer were prepared in a deep well block for each P5C concentration. Mixtures containing enzyme and various concentrations of the inhibitor were prepared in microcentrifuge tubes and incubated on ice in buffer containing 50 mM HEPES pH 7.8, 300 mM NaCl, and 5% (w/v) glycerol. The final concentration of PYCR1 in the assay was 6.25 nM. Twenty μl of the enzyme-analog mixture was added to microplate wells using a single-channel pipette, and then the reaction was initiated by addition of 180 μl of the substrate mixtures using a multi-channel pipettor. The reaction traces were followed for 35 min.

SMILES: O=CN1CCC[C@H]1C(=O)O [NFLP, N-formyl L-proline]
- reduction of spheroid growth based on protein content compared with control [1]: 50%
- electron density evidence for binding (in words) [2]: Electron density evidence for binding was observed
- Ki ([3]; Ki (estimated), rounded values): 100 µM and ~100 µM
- Ki ([3]; Ki, 50 mM Tris pH 7.5, global fit): 99 ± 7.7 µM
- binding free energy equivalent of the affinity increase ([3]; NFLP relative to proline): ~1.7 kcal/mol
- increase in affinity by addition of the formyl group to proline ([3]; NFLP relative to proline): 17 fold
- kcat ([3]; kcat for L-P5C at fixed NADH 175 μM, global fit of the data set with this analog): 52 ± 2 s⁻¹
